According to patent publication EP1541694A1, “Methods of identifying, selecting and/or characterizing compounds which modulate the activity of a Src family kinase” (Sirenade Pharmaceuticals AG, priority 2003, dated 2005):

Experiments:
Type in all cases: cell-based, human
[1] = tested on: Src-TQ expressing ZM78 cell lines; experiment: Suppression of tet-induced phenotype changes, evaluated by eye/microscope, normal cell culture plates; conditions: adherent
Protocol: Phenotype changes -tet → +tet were evaluated in 24-well plates (Nunc; cat.no. 143982) under the following several different growth conditions to identify the strongest possible response (Δpt(-tet→+tet)max) 1. full (10% serum containing) growth medium a) without any growth factor supplement (-), b) with epidermal growth factor (EGF; 100ng/ml) (cat.no. 115, Research Diagnostics Inc. (RDI), Flanders, NJ, USA) or c) platelet derived growth factor type BB (PDGF-BB; 30ng/ml) (cat.no. 114b, RDI) or d) hepatocyte growth factor (HGF; 20ng/ml) (RDI, cat.no.300-010), or 2. serum-free medium a) - or b) +EGF or c) +PDGF or d) +HGF. In all cases, cells were first seeded into standard 24-well or 96-well plates (Nunc) in full growth medium. The cell number seeded per well was also varied to identify the most suitable cell densities producing Δpt(-tet→+tet)max. […]
To that end, the test compounds PP1-Chr., PP2 (cat.no. 529573, Calbiochem) and SU6656 (cat.no. 572635, Calbiochem) (see Fig.9p for chemical structures) were individually added to the cells together with tet, and the development of the phenotype changes in the presence of these compounds was monitored subsequently in direct comparison with cells that received no compound or only vehicle (0.2% DMSO) together with tet induction. […]

[2] = tested on: Src-TQ/YF expressing cell line ZM170.21; experiment: Suppression of tet-induced phenotype changes (cell scattering) in suspension, Ultra Low Attachment plates; conditions: ZM170.21 (Src-TQ/YF) in suspension, Ultralow Attachment Plates
Protocol: (§1) Cells were seeded into 24-well or 96-well "Ultra Low Attachment" plates (cat.no.: 3473, Costar Corning Corp., Acton, MA, USA). These plates are coated with a covalently bound hydrogel layer that prevents cellular attachment to the polystyrene surface of the wells. As the cells were not attached to these wells, a medium change was impossible here. However, the phenotypes were tested in full serum-containing medium in the absence or presence of EGF, PDGF-BB or HGF as detailed above. Tet-induction was also started the day after seeding.
(§2) Largely irrespective of the cell numbers per well, the cells of all cell lines were in suspension and formed one or few very condensed/compact, opaque, rod-, disc- or kidney-shaped aggregates with a smooth surface, in which individual cells could not be discerned. Phenotype changes became apparent ~24 h after tet induction in ZM77 and ZM170 cell lines only, and Δpt(-tet →+tet)max was reached after ~2 days. In these cell lines Src-YF or Src-TQ/YF expression, respectively, induces scattering of the cells. Many cells are floating in the medium individually or in small clusters and the remaining large aggregate(s) are irregular-shaped and rather loose than compact; individual cells can easily be discerned and thus, the surfaces of these aggregates are rough as with bunches of grapes (Fig.14a,b). This biological response was readily observed with or without any of the above growth factors, wherefore normal growth medium without any additional growth factor was subsequently used in this assay type.
(§3) To that end, the test compounds PP1-Chr., SU6656 and PP2 were individually added to the cells together with tet, and the development of the phenotype changes in the presence of these compounds was monitored subsequently in direct comparison with tet-induced cells that received no compound (Fig.14c-j). The compounds were also added to the cells without tet-induction of Src/ Src mutant expression as controls for non-specific/ toxicity effects. The experiments were performed with several ZM77 cell lines.

[3] = tested on: Src-YF expressing ZM77 cell lines; experiment: as above; conditions: Ultralow Attachment Plates
Protocol: as §1, §2, §3

CC(C)(C)n1nc(-c2ccc(Cl)cc2)c2c(N)ncnc21 [PP2]
suppression of tet-induced phenotype changes [1]: ineffective
suppression of tet-induced phenotype (cell scattering) [2]: largely ineffective
suppression of tet-induced phenotype changes (cell scattering) [3]: partially suppressed
